Test [1] concerns A549. Kind of test: Cell culture and cytotoxicity assay (CTG), A549. Format: cell-based. Particulars: Homo sapiens, A549, exposure 72 hours. As to the method:
The assayed compounds each was dissolved in DMSO with a final concentration of 10 mM or 40 mM and stored at −20° C. Tumor cell lines A549 (7,000 cells/well), BT474 (12,000 cells/well), MDA-MB-468 (12,000 cells/well), and HCC1937 (6,000 cells/well) were seeded on 96-well plates. And the cells were pre-incubated at 37° C./5% CO2 for 24 hours. The cells were exposed to different concentrations of the assay compounds (from 400 μM to 782 nM, from 200 μM to 391 nM, from 100 μM to 196 nM, and from 50 μM to 98 nM) for the following time:
After incubation, 100 μL from each well was discarded and CTG base (Proega, G7571, 50 μL) was added and the mixture was agitated for 2 minutes. The mixtures were stored in a dark room for 10 minutes and the viability was analyzed with Multiskan microplate reader.

In the next test the test system is MCF-7. Kind of test: Cytotoxicity assay by the CTG method, MCF-7. The test is classed as cell-based. Particulars: Homo sapiens, MCF7, MCF-7, Breast cancer, 72 h. The method, then: (§1) The corresponding cells were harvested from flask into cell culture medium and the cell number were counted. The cells were diluted with culture medium to the desired density and 40 μL of cell suspension was added into each well of 384-well cell culture plate as designated. The plates were covered with lid and placed in room temperature for 30 minutes without shaking and then were transferred plates into 37° C. 5% CO2 incubator overnight for cell attachment.
(§2) Compound preparation and treatment: Test compounds were received or dissolved at 30 mM stock solution and control compound Staurosporine was stored as 10 mM and 1 mM concentration. 45 uL of stock solution was transferred to a 384 pp-plate. 3 fold, 10-point dilution were performed via transferring 15 uL compound into 30 μL DMSO by using TECAN (EVO200) liquid handler. The plates were spun at room temperature at 1,000 RPM for 1 minute and shaken at a plate shaker for 2 minutes. […]
(§3) The plate from incubators were placed and equilibrated at room temperature for 15 minutes. […] 40 μL of CellTiter-Glo reagent were transferred into each well to be detected (at 1:1 to culture medium). Then the plates were placed at room temperature for 30 min followed by reading on EnSpire.
(§4) The inhibition activity was calculated following the formula below: […]
(§5) The IC50 were calculated by fitting the Curve using Xlfit (v5.3.1.3): […]

A further test deals with MDA-MB-468. Kind of test: Cytotoxicity assay by the CTG method, MDA-MB-468. The test is classed as cell-based. Particulars: Homo sapiens, MDA-MB-468, Breast cancer, 72 h. The method, then: as §1, §2, §3, §4, §5
Another test has as its system COLO205. Put plainly: Cytotoxicity assay by the CTG method, COLO205. Format: cell-based. Particulars: Homo sapiens, COLO 205, COLO205, Colon cancer, 72 h. As to the method: as §1, §2, §3, §4, §5
In another test the test system is CaKi-1. Kind of test: Cytotoxicity assay by the CTG method, CaKi-1. Particulars: Homo sapiens, CaKi-1, Kidney cancer, 72 h. The test is classed as cell-based. The method, then: as §1, §2, §3, §4, §5
The subject of test [2] is A549. Kind of test: Cytotoxicity assay by the CTG method, A549. Format: cell-based. Particulars: Homo sapiens, A549, Lung cancer, 72 h. As to the method:
as §1, §2, §3, §4, §5

A further test deals with A2058. Put plainly: Cytotoxicity assay by the CTG method, A2058. The test is classed as cell-based. Particulars: Homo sapiens, A2058, Melanoma, 72 h. The method, then:
as §1, §2, §3, §4, §5

The test system of the next test is PC-3. Put plainly: Cytotoxicity assay by the CTG method, PC-3. The test is classed as cell-based. Particulars: Homo sapiens, PC-3, Prostate cancer, 72 h. The method, then:
as §1, §2, §3, §4, §5

For another test, the system named is MDA-MB-468 cell line. Kind of test: Anti-tumor activity against MDA-MB-468 cell line (CCK-8 test). Format: cell-based. Particulars: Homo sapiens, MDA-MB-468, 72 h. As to the method: A cryo tube was removed from liquid nitrogen. As quickly as possible, the cells were thawed by placing the vial in a 37° C. water bath and gently shaking the vials. The cells were transferred to medium tube, which containing 5 mL medium, and were centrifuged at 1000 rpm for 6 min. The supernatant containing dead cells and cell debris was discarded. 1 mL of pre-warmed medium with 10% FBS was add and the solution was re-suspended. The plate was placed in 37° C. and 5% CO2 incubator. The medium was changed next day.
Cells in logarithmic growth stage were taken and culture medium was discarded. 1 mL 0.25% trypsin solution was added for twice. The trypsin solution was removed and the 0.5 ml 0.25% trypsin solution was added to the cell flask. The plate was placed in 37° C. and 5% CO2 incubator for a few minutes until the cells recovered. 1 mL medium was added to stop digestion. The liquid was transferred by pipette for experiment.
the cells were suspended and the medium was discarded. 1 mL 0.25% trypsin solution was added for twice and the trypsin digestion was centrifuged. The cells were suspended with the culture medium, count and adjusted to the appropriate concentration.
The cell suspension was added to the 96-well plate with a volume of 100 uL per well, as shown in Tab. 5, and was placed in 37° C., 5% CO2 incubator overnight.
Preparation of Compounds Working Solution.
The test compounds were dissolved in DMSO at 10 mM with sterile filter (0.22 um, nelon, JET). After filtering, the solution were continuously diluted by three times with DMSO. A total of six concentration were prepared, as shown below.
6 uL compound solution was added to 594 uL medium and the solution was added to 96-well plate as shown and cultured for 72 h in CO2 incubator.
A CCK-8 solution was prepared according to the instructions and the 96-well plate was taken out and the original medium discarded. 100 uL cck-8 solution was added to each well in the 96-well plate. Photoabsorption data were read by TECAN enzyme marker after a period of time.
IC (%)=[Ac-As]/[Ac-Ab]*100% • As: Experimental well (containing culture medium, cell, CCK-8 and compound); • Ac: Controlled well (containing culture medium, cell and CCK-8); • Ab: Blank well (Only containing medium and CCK-8).

Test [3] has as its system MDA-MB-468 cells (human breast cancer) implanted in BALB/c-nu mice. Kind of test: In vivo xenograft study, MDA-MB-468, tumor sizes. Particulars: MDA-MB-468 xenograft in BALB/c-nu mice, FIGS. 2 and 4. The method, then:
MDA-MB-468 cells (human breast cancer) in its log growth phase were implanted in BALB/c-nu mice. When the tumor volume was approximately 50-150 mm^3, the mice were randomized into four groups, each include 8 mice. The four groups were treated with vehicle, Ref. 1, 4f, and Ref. 2, respectively, and the tumor sizes were measured two to three times each week and the mice were also weighted.

Test [4] deals with MDA-MB-453 cells (human breast cancer). Kind of test: In vivo mouse model, MDA-MB-453, tumor sizes. Particulars: MDA-MB-453 mouse model, similar dosage (for example, 100 mg/Kg), FIG. 6. The source says:
MDA-MB-453 cells (human breast cancer) were also studied in a mouse model. […] FIG. 7.

In the case of `Cc1ccc(S(=O)(=O)Nc2nc3ccccc3nc2Nc2ccc3nsnc3c2)cc1F` [Compound 4f, N-[3-(benzo[1,2,5]thiadiazol-5-ylamino)-quinoxalin-2-yl]-3-fluoro-4-methyl-benzenesulfonamide], the IC50 in the test on A549 [1] was 25000 to 50000 nM; with MCF-7 it was 5.19 µM; in the test on MDA-MB-468 it was 2490 nM; in the test with COLO205, 2990 nM; with CaKi-1, 13 µM; with A549 [2], 8.33 µM. Further, the IC50 came out at 7.7 µM with A2058, 6.05 µM in the test on PC-3 and 912 nM in the test on MDA-MB-468 cell line. For the same molecule, in [3], the “anticancer activity (tumor sizes) versus vehicle” value is on record as “significant anticancer activities”. The “anticancer activities (tumor sizes) compared with Ref. 2” value in [4] was “better anticancer activities than Ref. 2”.

For the origin of these results see US20200223839A1, “FLUORO-CONTAINING COMPOUNDS, USE AND PREPARATION THEREOF” (JIANGSU YINGKEBEITA YIYAOKEJI CO. LTD, priority 2017, published 2020).
